Experimental data: US11208400B2, “Substituted 6-(1H-pyrazol-1-yl)pyrimidin-4-amine derivatives and uses thereof” (Bayer Aktiengesellschaft, priority 2016, dated 2021)

molecular target: T1, human Npt2a (Homo sapiens, UniProt Q06495); assay: Npt2a activity cell based assay, membrane potential dye, CHO T-REx hNpt2a cells; details: doxycycline-induced, depolarization by sodium phosphate influx, average or median values if tested more than once
T1 construct: expressed in transfected cells
T1 sequence (Q06495 1-639): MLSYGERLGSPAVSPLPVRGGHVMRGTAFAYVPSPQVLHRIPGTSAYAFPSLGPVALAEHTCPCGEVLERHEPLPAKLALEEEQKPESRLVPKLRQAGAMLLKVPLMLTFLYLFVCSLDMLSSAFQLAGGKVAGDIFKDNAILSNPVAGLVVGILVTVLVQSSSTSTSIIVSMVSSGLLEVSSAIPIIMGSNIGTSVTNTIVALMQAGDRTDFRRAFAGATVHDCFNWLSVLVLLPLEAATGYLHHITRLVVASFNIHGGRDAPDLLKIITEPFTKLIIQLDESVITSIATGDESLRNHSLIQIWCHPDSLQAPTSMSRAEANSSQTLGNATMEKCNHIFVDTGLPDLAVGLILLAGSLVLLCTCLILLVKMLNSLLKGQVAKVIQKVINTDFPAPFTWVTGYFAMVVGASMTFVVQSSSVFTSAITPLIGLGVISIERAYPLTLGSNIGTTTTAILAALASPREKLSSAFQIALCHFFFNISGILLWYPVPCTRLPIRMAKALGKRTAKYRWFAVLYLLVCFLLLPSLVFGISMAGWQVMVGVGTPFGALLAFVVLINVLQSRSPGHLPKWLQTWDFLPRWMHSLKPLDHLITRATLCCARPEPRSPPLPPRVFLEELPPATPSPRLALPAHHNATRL
Summary of the method: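 Doxycycline-induced (0.5 μg/mL, 24 h) CHO T-REx cells were loaded with membrane potential dye in sodium-free NHE buffer (pH 7.4) and exposed to compound (50 μM–1 nM, 5 min, room temperature).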

Compound | IC50 [nM]
Cc1cc(C)n(-c2cc(Nc3c(C)c(-c4ccncc4)nn3CC3CC3)ncn2)n1 [Example 350, N-[1-(cyclopropylmethyl)-4-methyl-3-(pyridin-4-yl)-1H-pyrazol-5-yl]-6-(3,5-dimethyl-1H-pyrazol-1-yl)pyrimidin-4-amine] | 1300
COc1c(-c2ccc(C#N)cc2)nn(C)c1Nc1cc(-n2nc(C)c(OC)c2C)ncn1 [Example 462, 4-(4-methoxy-5-{[6-(4-methoxy-3,5-dimethyl-1H-pyrazol-1-yl)pyrimidin-4-yl]amino}-1-methyl-1H-pyrazol-3-yl)benzonitrile] | 25
COc1c(C)nn(-c2cc(Nc3nn(C)c(-c4ccc(F)cn4)c3C)ncn2)c1C [Example 461, N-[5-(5-fluoropyridin-2-yl)-1,4-dimethyl-1H-pyrazol-3-yl]-6-(4-methoxy-3,5-dimethyl-1H-pyrazol-1-yl)pyrimidin-4-amine] | 170
Cc1nn(-c2cc(Nc3c(C)c(-c4ccc(C#N)cc4)nn3CC3CC3)ncn2)c(C(F)F)c1C(=O)OC(C)(C)C [Example 192, tert-butyl 1-(6-{[3-(4-cyanophenyl)-1-(cyclopropylmethyl)-4-methyl-1H-pyrazol-5-yl]amino}pyrimidin-4-yl)-5-(difluoromethyl)-3-methyl-1H-pyrazole-4-carboxylate] | 16
Cc1nn(-c2cc(Nc3nn(C)c(-c4ccc(C#N)cc4)c3C)ncn2)c(C)c1C(C)(C)O [Example 300, 4-[3-({6-[4-(2-hydroxypropan-2-yl)-3,5-dimethyl-1H-pyrazol-1-yl]pyrimidin-4-yl}amino)-1,4-dimethyl-1H-pyrazol-5-yl]benzonitrile] | 88
Cc1ccn(-c2cc(Nc3c(C)c(-c4ccc(C#N)cc4)nn3CC3CC3)ncn2)n1 [Example 243, 4-[1-(cyclopropylmethyl)-4-methyl-5-{[6-(3-methyl-1H-pyrazol-1-yl)pyrimidin-4-yl]amino}-1H-pyrazol-3-yl]benzonitrile] | 28
Cc1cc(C)n(-c2cc(Nc3c(C)c(-c4ccc(F)cc4)nn3CC(O)C3CC3)ncn2)n1 (single isomer, unassigned) [Example 371, 1-cyclopropyl-2-[5-{[6-(3,5-dimethyl-1H-pyrazol-1-yl)pyrimidin-4-yl]amino}-3-(4-fluorophenyl)-4-methyl-1H-pyrazol-1-yl]ethanol] | 240
CCc1c(Nc2cc(-n3nc(C)c4ncccc43)ncn2)nn(C)c1-c1ccc(F)cc1 [Example 223, N-[4-ethyl-5-(4-fluorophenyl)-1-methyl-1H-pyrazol-3-yl]-6-(3-methyl-1H-pyrazolo[4,3-b]pyridin-1-yl)pyrimidin-4-amine] | 36
CCc1c(Nc2cc(-n3nc(C)c(CCO)c3C)ncn2)nn(C)c1-c1ccc(F)cc1 [Example 92, 2-[1-(6-{[4-ethyl-5-(4-fluorophenyl)-1-methyl-1H-pyrazol-3-yl]amino}pyrimidin-4-yl)-3,5-dimethyl-1H-pyrazol-4-yl]ethanol] | 820
Cc1nn(-c2cc(Nc3c(C)c(-c4ccc(F)cc4)nn3CC3CC3)ncn2)c(C)c1C(O)C1CC1 (single isomer, unassigned) [Example 419, cyclopropyl[1-(6-{[1-(cyclopropylmethyl)-3-(4-fluorophenyl)-4-methyl-1H-pyrazol-5-yl]amino}pyrimidin-4-yl)-3,5-dimethyl-1H-pyrazol-4-yl]methanol] | 14
CC(=O)c1c(C)nn(-c2cc(Nc3c(C)c(-c4ccc(C#N)cc4)nn3CC3CC3)ncn2)c1C [Example 321, 4-[5-{[6-(4-acetyl-3,5-dimethyl-1H-pyrazol-1-yl)pyrimidin-4-yl]amino}-1-(cyclopropylmethyl)-4-methyl-1H-pyrazol-3-yl]benzonitrile] | 16
Cc1cc(C(F)F)n(-c2cc(Nc3c(C)c(-c4ccc(C#N)cc4)nn3CC(F)F)ncn2)n1 [Example 234, 4-[1-(2,2-difluoroethyl)-5-({6-[5-(difluoromethyl)-3-methyl-1H-pyrazol-1-yl]pyrimidin-4-yl}amino)-4-methyl-1H-pyrazol-3-yl]benzonitrile] | 28
Cc1cc(C)n(-c2cc(Nc3nn(CC(F)F)c(-c4ccc(F)cc4)c3Cl)ncn2)n1 [Example 132, N-[4-chloro-1-(2,2-difluoroethyl)-5-(4-fluorophenyl)-1H-pyrazol-3-yl]-6-(3,5-dimethyl-1H-pyrazol-1-yl)pyrimidin-4-amine] | 39
CCc1c(Nc2cc(-n3ncc4c3CN(C(=O)OC(C)(C)C)C4)ncn2)n[nH]c1-c1ccc(F)cc1 [Example 37, tert-butyl 1-(6-{[4-ethyl-5-(4-fluorophenyl)-1H-pyrazol-3-yl]amino}pyrimidin-4-yl)-4,6-dihydropyrrolo[3,4-c]pyrazole-5(1H)-carboxylate] | 1700
Cc1cc(C)n(-c2cc(Nc3nn(C)c(-c4ccc(F)cc4)c3OC(F)F)ncn2)n1 [Example 400, N-[4-(difluoromethoxy)-5-(4-fluorophenyl)-1-methyl-1H-pyrazol-3-yl]-6-(3,5-dimethyl-1H-pyrazol-1-yl)pyrimidin-4-amine] | 6
Cc1nn(-c2cc(Nc3c(C)c(-c4ccc(F)cc4)nn3CC3CC3)ncn2)c(C)c1CO [Example 282, [1-(6-{[1-(cyclopropylmethyl)-3-(4-fluorophenyl)-4-methyl-1H-pyrazol-5-yl]amino}pyrimidin-4-yl)-3,5-dimethyl-1H-pyrazol-4-yl]methanol] | 73
CCc1c(Nc2cc(-n3nc(C)c(Br)c3C)ncn2)nn(C)c1-c1ccc(F)cc1 [Example 191, 6-(4-bromo-3,5-dimethyl-1H-pyrazol-1-yl)-N-[4-ethyl-5-(4-fluorophenyl)-1-methyl-1H-pyrazol-3-yl]pyrimidin-4-amine] | 3
Cc1cc(C)n(-c2cc(Nc3c(C)c(-c4ccc(C5CC5)cc4)nn3C)ncn2)n1 [Example 324, N-[3-(4-cyclopropylphenyl)-1,4-dimethyl-1H-pyrazol-5-yl]-6-(3,5-dimethyl-1H-pyrazol-1-yl)pyrimidin-4-amine] | 270
COc1c(C)nn(-c2cc(Nc3c(C)c(-c4ccc(F)cc4)nn3CC3CC3)ncn2)c1C [Example 385, N-[1-(cyclopropylmethyl)-3-(4-fluorophenyl)-4-methyl-1H-pyrazol-5-yl]-6-(4-methoxy-3,5-dimethyl-1H-pyrazol-1-yl)pyrimidin-4-amine] | 4
CCc1c(-c2ccc(F)cc2)nn(CC(F)F)c1Nc1cc(-n2nc(C)cc2C)ncn1 [Example 162, N-[1-(2,2-difluoroethyl)-4-ethyl-3-(4-fluorophenyl)-1H-pyrazol-5-yl]-6-(3,5-dimethyl-1H-pyrazol-1-yl)pyrimidin-4-amine] | 97
COc1ccc(-c2nn(CC3CC3)c(Nc3cc(-n4nc(C)cc4C)ncn3)c2C)cc1 [Example 491, N-[1-(cyclopropylmethyl)-3-(4-methoxyphenyl)-4-methyl-1H-pyrazol-5-yl]-6-(3,5-dimethyl-1H-pyrazol-1-yl)pyrimidin-4-amine] | 220
COc1c(Nc2cc(-n3nc(C)c(C(F)(F)F)c3C)ncn2)nn(C)c1-c1ccc(C#N)cc1 [Example 541, 4-[3-({6-[3,5-dimethyl-4-(trifluoromethyl)-1H-pyrazol-1-yl]pyrimidin-4-yl}amino)-4-methoxy-1-methyl-1H-pyrazol-5-yl]benzonitrile] | 260
CCOC(=O)c1c(C)nn(-c2cc(Nc3n[nH]c(-c4ccc(C#N)cc4)c3C)ncn2)c1C [Example 136, ethyl 1-(6-{[5-(4-cyanophenyl)-4-methyl-1H-pyrazol-3-yl]amino}pyrimidin-4-yl)-3,5-dimethyl-1H-pyrazole-4-carboxylate] | 360
CCOC(=O)c1c(Cl)c(C)nn1-c1cc(Nc2nn(C)c(-c3ccc(F)cc3)c2C)ncn1 [Example 259, ethyl 4-chloro-1-(6-{[5-(4-fluorophenyl)-1,4-dimethyl-1H-pyrazol-3-yl]amino}pyrimidin-4-yl)-3-methyl-1H-pyrazole-5-carboxylate] | 50
Cc1nn(-c2cc(Nc3c(C)c(-c4ccc(F)cc4)nn3CC3CC3)ncn2)c(C)c1C(N(C)C)C(F)(F)F (racemic) [Example 504, N-[1-(cyclopropylmethyl)-3-(4-fluorophenyl)-4-methyl-1H-pyrazol-5-yl]-6-{4-[(±)-1-(dimethylamino)-2,2,2-trifluoroethyl]-3,5-dimethyl-1H-pyrazol-1-yl}pyrimidin-4-amine] | 5
Cc1nn(-c2cc(Nc3c(C)c(-c4ccc(F)cc4)nn3CC3CC3)ncn2)c(C(F)F)c1Cl [Example 176, 6-[4-chloro-5-(difluoromethyl)-3-methyl-1H-pyrazol-1-yl]-N-[1-(cyclopropylmethyl)-3-(4-fluorophenyl)-4-methyl-1H-pyrazol-5-yl]pyrimidin-4-amine] | 13
Cc1nn(-c2cc(Nc3c(C)c(-c4ccc(C(F)(F)F)cc4)nn3CC3CC3)ncn2)c(C)c1Cl [Example 311, 6-(4-chloro-3,5-dimethyl-1H-pyrazol-1-yl)-N-{1-(cyclopropylmethyl)-4-methyl-3-[4-(trifluoromethyl)phenyl]-1H-pyrazol-5-yl}pyrimidin-4-amine] | 340
